Target: T1, human orexin type 2 receptor (hOX2R) (Homo sapiens, UniProt O43614)
T1 construct: expressed in transfected cells
T1 sequence (O43614 1-444): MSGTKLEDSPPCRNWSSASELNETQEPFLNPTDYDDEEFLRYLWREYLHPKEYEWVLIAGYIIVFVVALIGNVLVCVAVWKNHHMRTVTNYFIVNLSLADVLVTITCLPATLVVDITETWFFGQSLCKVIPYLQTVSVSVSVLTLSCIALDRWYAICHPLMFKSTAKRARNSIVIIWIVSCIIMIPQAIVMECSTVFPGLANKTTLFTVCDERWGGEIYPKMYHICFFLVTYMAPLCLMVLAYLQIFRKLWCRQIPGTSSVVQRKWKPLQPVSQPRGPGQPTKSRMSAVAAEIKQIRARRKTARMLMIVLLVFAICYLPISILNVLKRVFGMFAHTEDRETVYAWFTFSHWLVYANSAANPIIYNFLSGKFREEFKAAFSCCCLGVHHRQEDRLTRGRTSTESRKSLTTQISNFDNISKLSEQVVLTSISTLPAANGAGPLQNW
Test: Measurement of orexin type 2 receptor agonist activity (FLIPR calcium fluorescence)
Format: cell-based
Settings: CHO cells expressing hOX2R, FLIPR calcium fluorescence; for EC50: read-out: hOx2 pEC50 (converted); for Emax: CHO, read-out: hOx2 Emax (%)
Summary of the method: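 Agonism was read as fluorescence in cells stably expressing human OX2R. E. is the response at 10 μM relative to orexin A as full agonist (100%).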

EC50 [nM] | Emax [%] | hOx2 pEC50 | Compound
1 to 10 | 90 to 100 |  | CS(=O)(=O)N[C@@H]1[C@H](Cc2cccc(-c3ccccc3)c2F)N(C(=O)N2CCC2)CC12CC2 [Compound 35, N-((6S,7S)-5-(azetidine-1-carbonyl)-6-((2-fluoro-[1,1′-biphenyl]-3-yl)methyl)-5-azaspiro[2.4]heptan-7-yl)methanesulfonamide]
1 to 10 | 90 to 100 |  | CS(=O)(=O)NC1C(Cc2cccc(-c3ccccc3)c2F)N(C(=O)[C@H]2C[C@H](F)C2)CC12CC2 (mixture of isomers) [Compound 90, N-(6-((2-fluoro-[1,1′-biphenyl]-3-yl)methyl)-5-((1r,3r)-3-fluorocyclobutane-1-carbonyl)-5-azaspiro[2.4]heptan-7-yl)methanesulfonamide]
10 to 100 | 90 to 100 |  | CS(=O)(=O)NC1C(Cc2cccc(-c3ccccc3)c2F)N(C(=O)[C@H]2C[C@@H](F)C2)CC12CC2 (mixture of isomers) [Compound 91, N-(6-((2-fluoro-[1,1′-biphenyl]-3-yl)methyl)-5-((1s,3s)-3-fluorocyclobutane-1-carbonyl)-5-azaspiro[2.4]heptan-7-yl)methanesulfonamide]
10 to 100 | 80 to 90 |  | CC(F)(F)C(=O)N1CC2(CC2)[C@H](NS(C)(=O)=O)[C@@H]1Cc1cccc(-c2cccc(F)c2)c1F [Compound 294, N-((6S,7S)-6-((2,3'-difluoro-[1,1′-biphenyl]-3-yl)methyl)-5-(2,2-difluoropropanoyl)-5-azaspiro[2.4]heptan-7-yl)methanesulfonamide]
0.0794 to 1 | 90 to 100 |  | C[C@H](F)CNC(=O)N1CC2(CC2)[C@H](NS(C)(=O)=O)[C@@H]1Cc1cccc(-c2ccccc2)c1F [Compound 84, (6S,7S)-6-((2-fluoro-[1,1′-biphenyl]-3-yl)methyl)-N-((S)-2-fluoropropyl)-7-(methylsulfonamido)-5-azaspiro[2.4]heptane-5-carboxamide]
1 to 10 | 90 to 100 |  | C[C@@H](CF)NC(=O)N1CC2(CC2)[C@H](NS(C)(=O)=O)[C@@H]1Cc1cccc(-c2ccccc2)c1F [Compound 337, (6S,7S)-6-((2-fluoro-[1,1′-biphenyl]-3-yl)methyl)-N-((S)-1-fluoropropan-2-yl)-7-(methylsulfonamido)-5-azaspiro[2.4]heptane-5-carboxamide]
1 to 10 | 90 to 100 |  | CS(=O)(=O)NC1C(Cc2cccc(-c3ccccc3)c2F)N(C(=O)N2CCC2)CC12CC2 (racemic) [Compound 18, N-(5-(azetidine-1-carbonyl)-6-((2-fluoro-[1,1′-biphenyl]-3-yl)methyl)-5-azaspiro[2.4]heptan-7-yl)methanesulfonamide]

Further lines, the compound ahead of its results:

Compound | EC50 [nM] | Emax [%] | hOx2 pEC50
O=C([C@H](O)C(F)(F)F)N1CC2(CC2)[C@H](NS(=O)(=O)CF)[C@@H]1Cc1cccc(-c2ccccc2)c1F [Compound 98, 1-fluoro-N-((6S,7S)-6-((2-fluoro-[1,1′-biphenyl]-3-yl)methyl)-5-((S)-3,3,3-trifluoro-2-hydroxypropanoyl)-5-azaspiro[2.4]heptan-7-yl)methanesulfonamide] | 1 to 10 | 90 to 100 | 
CC(C)(F)C(=O)N1CC2(CC2)C(NS(C)(=O)=O)C1Cc1cccc(-c2ccccc2)c1 (racemic) [Compound 13, N-(6-([1,1′-biphenyl]-3-ylmethyl)-5-(2-fluoro-2-methylpropanoyl)-5-azaspiro[2.4]heptan-7-yl)methanesulfonamide] | 100 to 1000 | 80 to 90 | 
O=C([C@H]1CCO1)N1CC2(CC2)[C@H](NS(=O)(=O)C(F)F)[C@@H]1Cc1cccc(-c2cccc(F)c2F)c1F [Compound 172] | 1 to 10 | 90 to 100 | 
CN(C)S(=O)(=O)N[C@@H]1[C@H](Cc2cccc(-c3ccccc3)c2F)N(C(=O)C2(O)CCC2)CC12CC2 [Compound 120, N-((6S,7S)-6-((2-fluoro-[1,1′-biphenyl]-3-yl)methyl)-5-(1-hydroxycyclobutane-1-carbonyl)-5-azaspiro[2.4]heptan-7-yl)-N,N-dimethylsulfuric diamide] | 0.0794 to 1 | 90 to 100 | 
CS(=O)(=O)N[C@@H]1[C@H](Cc2cc(F)cc(-c3ccccc3)c2F)N(C(=O)[C@H](O)C2CC2)CC12CC2 [Compound 352, N-((6S,7S)-5-((R)-2-cyclopropyl-2-hydroxyacetyl)-6-((2,5-difluoro-[1,1′-biphenyl]-3-yl)methyl)-5-azaspiro[2.4]heptan-7-yl)methanesulfonamide] | 1 to 10 | 90 to 100 | 
O=C(NCC(F)(F)F)N1CC2(CC2)[C@H](NS(=O)(=O)C(F)F)[C@@H]1Cc1cccc(-c2ccccc2)c1F [Compound 200, (6S,7S)-7-((difluoromethyl)sulfonamido)-6-((2-fluoro-[1,1′-biphenyl]-3-yl)methyl)-N-(2,2,2-trifluoroethyl)-5-azaspiro[2.4]heptane-5-carboxamide] | 1 to 10 | 90 to 100 | 
CS(=O)(=O)NC1C(Cc2cccc(-c3ccccc3)c2)N(C(=O)C23CC2C3)CC12CC2 (racemic) [Compound 66, N-(6-([1,1′-biphenyl]-3-ylmethyl)-5-(bicyclo[1.1.0]butane-1-carbonyl)-5-azaspiro[2.4]heptan-7-yl)methanesulfonamide] | 10 to 100 | 90 to 100 | 
COC1(CNC(=O)N2CC3(CC3)[C@H](NS(=O)(=O)C(F)F)[C@@H]2Cc2cccc(-c3ccccc3)c2F)CC1 [Compound 215, (6S,7S)-7-((difluoromethyl)sulfonamido)-6-((2-fluoro-[1,1′-biphenyl]-3-yl)methyl)-N-((1-methoxycyclopropyl)methyl)-5-azaspiro[2.4]heptane-5-carboxamide] | 0.0794 to 1 | 90 to 100 | 
C[C@H]1C[C@@H]1S(=O)(=O)N[C@H]1[C@@H](Cc2cccc(-c3ccccc3)c2)N(C(=O)[C@H]2CCO2)CC12CC2 (relative stereo) [Compound 312, (1S*,2S*)-N-(6R,7R)-6-([1,1′-biphenyl]-3-ylmethyl)-5-((R)-oxetane-2-carbonyl)-5-azaspiro[2.4]heptan-7-yl)-2-methylcyclopropane-1-sulfonamide] | 10 to 100 | 90 to 100 | 
O=C([C@H]1CCO1)N1CC2(CC2)[C@H](NS(=O)(=O)N2CCC2)[C@@H]1Cc1cccc(-c2ccccc2)c1 [Compound 76, N-((6S,7S)-6-([1,1′-biphenyl]-3-ylmethyl)-5-((R)-oxetane-2-carbonyl)-5-azaspiro[2.4]heptan-7-yl)azetidine-1-sulfonamide] | 10 to 100 | 90 to 100 | 
CS(=O)(=O)N[C@@H]1[C@H](Cc2cccc(-c3ccccc3)c2)N(C(=O)C2(O)CCC2)CC12CC2 (racemic) [Compound 298] | 1 to 10 | 90 to 100 | 
C[C@H](CF)NC(=O)N1CC2(CC2)[C@H](NS(=O)(=O)C(F)F)[C@@H]1Cc1cccc(-c2ccccc2)c1F [Compound 212, (6S,7S)-7-((difluoromethyl)sulfonamido)-6-((2-fluoro-[1,1′-biphenyl]-3-yl)methyl)-N-((R)-I-fluoropropan-2-yl)-5-azaspiro[2.4]heptane-5-carboxamide] | 1 to 10 | 90 to 100 | 
CN(C)S(=O)(=O)N[C@@H]1[C@H](Cc2cccc(-c3ccccc3)c2)N(C(=O)[C@H]2CCO2)CC12CC2 [Compound 95, N-((6S,7S)-6-([1,1′-biphenyl]-3-ylmethyl)-5-((R)-oxetane-2-carbonyl)-5-azaspiro[2.4]heptan-7-yl)-N,N-dimethylsulfuric diamide] | 1 to 10 | 90 to 100 | 
O=C(NCC(F)F)N1CC2(CC2)[C@H](NS(=O)(=O)C(F)F)[C@@H]1Cc1cccc(-c2cc(F)cc(F)c2)c1F [Compound 382, (6S,7S)-N-(2,2-difluoroethyl)-7-((difluoromethyl)sulfonamido)-6-((2,3′,5′-trifluoro-[1,1′-biphenyl]-3-yl)methyl)-5-azaspiro[2.4]heptane-5-carboxamide] | 0.0794 to 1 | 90 to 100 | 
O=C([C@H]1CCO1)N1CC2(CC2)[C@H](NS(=O)(=O)/C=C/F)[C@@H]1Cc1cccc(-c2ccccc2)c1F [Compound 204, (E)-2-fluoro-N-((6S,7S)-6-((2-fluoro-[1,1′-biphenyl]-3-yl)methyl)-5-((R)-oxetane-2-carbonyl)-5-azaspiro[2.4]heptan-7-yl)ethene-1-sulfonamide] | 10 to 100 | 90 to 100 | 
C[C@@H](CC#N)NC(=O)N1CC2(CC2)[C@H](NS(C)(=O)=O)[C@@H]1Cc1cccc(-c2ccccc2)c1F [Compound 318, (6S,7S)-N-((S)-1-cyanopropan-2-yl)-6-((2-fluoro-[1,1′-biphenyl]-3-yl)methyl)-7-(methylsulfonamido)-5-azaspiro[2.4]heptane-5-carboxamide] | 1 to 10 | 90 to 100 | 
COc1c(C[C@H]2[C@@H](NS(C)(=O)=O)C3(CC3)CN2C(=O)C2CC(F)C2)cccc1-c1ccccc1 (stereo partly drawn) [Compound 339, N-((6S,7S)-5-(3-fluorocyclobutane-1-carbonyl)-6-((2-methoxy-[1,1′-biphenyl]-3-yl)methyl)-5-azaspiro[2.4]heptan-7-yl)methanesulfonamide] |  | 70 to 80 | *** (pEC50 ranging between 7.0 and 8.0)

Source: patent publication US12503475B2 (Centessa Pharmaceuticals (UK) Limited, priority 2020, dated 2025)
